Data as given in patent US9487762B1, “Method and system for producing triterpenes” (University of Kentucky Research Foundation, priority 2012, dated 2016).

Assays:
[1] = tested on: six B. braunii SMT-like genes (TMT-1, -2, -3, SMT-1, -2, -3); test: In vitro methyltransferase assay with sterol acceptor substrates; format: biochemical, Botryococcus braunii race B; conditions: 2 mM acceptor substrate, yeast microsomes, data not shown
Protocol: (§1) The various B. braunii SMT-like genes or empty vector control were expressed in TN-7 yeast and grown in 100 ml selection media for 3 days, after which microsomes were prepared according to the methods of Pompon et al. (27). Enzyme assays contained 50 mM HEPES, pH 7.5, either 0.01% (TMT-3) or 0.1% (all other samples) DHPC, 2 mM acceptor substrate (botryococcene, squalene, C32-botryococcene, C32-squalene, cycloartenol, zymosterol, or lanosterol), 50 μM 3H-SAM (˜150 dpm/pmole), 2 μl microsomes, in 100 μl total volume. Assays were set up by first combining everything except 3H-SAM and microsomes and treating with a sonicating water bath (Branson 2510) for ˜1 min. until the solution became cloudy due to micelle formation, after which 3H-SAM and microsomes were added and the reaction incubated at 37° C. for 5 min. Reactions were stopped by adding an equal volume of 10% (w/v) KOH in methanol, followed by extraction of hydrocarbon products with 400 μl n-hexane. An aliquot of the organic phase was spotted on silica TLC plates and developed with n-hexane:MTBE (25:1). Triterpenes were visualized with iodine vapor and the corresponding zones were scraped and subject to scintillation analysis.
None of the six enzymes was able to methylate C32 botryococcene or C32 squalene, possible intermediates to the tetramethylated forms (see below).

SMT-2 = molecular target: T1, SMT-2 (Botryococcus braunii, UniProt H2E7T9); test: In vitro methyltransferase assay, yeast microsomes, 3H-SAM; format: biochemical, Botryococcus braunii race B; conditions: SMT-2 microsomes; 2 mM acceptor substrate, 50 μM 3H-SAM, 0.1% DHPC, 37° C., 5 min
T1 construct: led to the identification of six full-length ORFs; made in house; host or cells: Saccharomyces cerevisiae TN7 (TN-7), microsomal preparation
T1 sequence (H2E7T9 1-389): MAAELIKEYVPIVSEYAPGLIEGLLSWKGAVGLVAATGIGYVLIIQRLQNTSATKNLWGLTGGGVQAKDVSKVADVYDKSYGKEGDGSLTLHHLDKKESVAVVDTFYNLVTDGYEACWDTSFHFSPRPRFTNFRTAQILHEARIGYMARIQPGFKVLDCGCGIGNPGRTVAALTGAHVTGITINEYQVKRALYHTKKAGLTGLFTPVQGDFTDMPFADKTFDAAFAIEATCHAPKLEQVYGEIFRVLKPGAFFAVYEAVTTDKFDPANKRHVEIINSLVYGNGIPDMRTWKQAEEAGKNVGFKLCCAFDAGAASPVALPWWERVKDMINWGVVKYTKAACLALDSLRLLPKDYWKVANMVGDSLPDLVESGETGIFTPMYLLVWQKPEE
Protocol: as §1
(§2) To verify the in vivo results with in vitro determinations, the six SMT-like genes were expressed in yeast and microsomal preparations used as the source of the enzymes in assays containing 3H-SAM and either botryococcene or squalene as substrates.

SMT-3 = molecular target: T2, SMT-3 (Botryococcus braunii, UniProt H2E7U0); test: as above; format: biochemical, Botryococcus braunii race B; conditions: SMT-3 microsomes; 2 mM acceptor substrate, 50 μM 3H-SAM, 0.1% DHPC, 37° C., 5 min
T2 construct: led to the identification of six full-length ORFs; made in house; host or cells: Saccharomyces cerevisiae TN7 (TN-7), microsomal preparation
T2 sequence (H2E7U0 1-392): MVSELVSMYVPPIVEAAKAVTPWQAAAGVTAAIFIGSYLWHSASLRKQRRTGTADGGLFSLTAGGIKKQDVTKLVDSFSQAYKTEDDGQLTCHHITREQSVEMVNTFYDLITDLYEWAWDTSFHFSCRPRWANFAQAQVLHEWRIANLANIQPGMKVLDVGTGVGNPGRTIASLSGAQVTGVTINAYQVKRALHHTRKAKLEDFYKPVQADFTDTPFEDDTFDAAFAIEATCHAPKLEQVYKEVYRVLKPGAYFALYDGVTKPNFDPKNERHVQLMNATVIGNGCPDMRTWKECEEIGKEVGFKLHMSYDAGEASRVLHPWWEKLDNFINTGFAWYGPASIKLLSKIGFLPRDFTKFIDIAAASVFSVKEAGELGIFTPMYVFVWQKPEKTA
Protocol: as §1, §2

SMT-1 = molecular target: T3, SMT-1 (Botryococcus braunii, UniProt H2E7T8); test: as above; format: biochemical, Botryococcus braunii race B; conditions: SMT-1 microsomes; 2 mM acceptor substrate, 50 μM 3H-SAM, 0.1% DHPC, 37° C., 5 min
T3 construct: led to the identification of six full-length ORFs; made in house; host or cells: Saccharomyces cerevisiae TN7 (TN-7), microsomal preparation
T3 sequence (H2E7T8 1-389): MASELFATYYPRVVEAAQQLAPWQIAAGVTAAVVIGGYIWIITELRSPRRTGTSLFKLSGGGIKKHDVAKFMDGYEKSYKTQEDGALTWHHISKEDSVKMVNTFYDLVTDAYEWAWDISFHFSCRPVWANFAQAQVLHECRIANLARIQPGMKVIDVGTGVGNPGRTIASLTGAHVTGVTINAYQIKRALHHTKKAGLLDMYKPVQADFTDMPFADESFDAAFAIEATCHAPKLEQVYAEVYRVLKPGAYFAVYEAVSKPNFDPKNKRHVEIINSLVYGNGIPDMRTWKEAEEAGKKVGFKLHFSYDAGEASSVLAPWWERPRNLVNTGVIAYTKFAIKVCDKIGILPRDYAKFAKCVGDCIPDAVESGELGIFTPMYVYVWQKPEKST
Protocol: as §1, §2

TMT-3 [2] = molecular target: T4, TMT-3 (Botryococcus braunii, UniProt H2E7T7); test: as above; format: biochemical, Botryococcus braunii race B; conditions: TMT-3 microsomes; 2 mM acceptor substrate, 50 μM 3H-SAM, 0.01% DHPC, 37° C., 5 min; mean ± S.E.M., n = 3
T4 construct: led to the identification of six full-length ORFs; expressed in transfected cells; host or cells: Saccharomyces cerevisiae TN7 (erg9 insertional mutant) co-expressing B. braunii squalene synthase (BSS) or SSL-1-3m
T4 sequence (H2E7T7 1-379): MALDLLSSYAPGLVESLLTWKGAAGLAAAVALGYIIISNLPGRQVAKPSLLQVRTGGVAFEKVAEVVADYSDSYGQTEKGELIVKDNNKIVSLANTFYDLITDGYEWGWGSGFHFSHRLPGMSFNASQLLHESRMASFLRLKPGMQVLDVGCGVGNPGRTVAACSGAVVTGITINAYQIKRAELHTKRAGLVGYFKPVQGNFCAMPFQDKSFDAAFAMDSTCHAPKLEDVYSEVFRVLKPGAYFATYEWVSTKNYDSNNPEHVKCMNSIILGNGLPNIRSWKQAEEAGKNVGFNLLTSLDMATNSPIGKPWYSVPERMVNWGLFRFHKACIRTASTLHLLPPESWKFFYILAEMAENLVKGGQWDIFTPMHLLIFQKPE
Protocol: as §1, §2

TMT-2 [3] = molecular target: T5, TMT-2 (Botryococcus braunii, UniProt H2E7T6); test: In vivo co-expression in TN7 yeast with triterpene synthase, GC-MS of organic extracts; format: cell-based, Botryococcus braunii race B; set-up: led to the identification of six full-length ORFs; made in house; host or cells: Saccharomyces cerevisiae TN7 (TN-7); conditions: TN7 yeast co-expressing TMT-2 and BSS
T5 sequence (H2E7T6 1-378): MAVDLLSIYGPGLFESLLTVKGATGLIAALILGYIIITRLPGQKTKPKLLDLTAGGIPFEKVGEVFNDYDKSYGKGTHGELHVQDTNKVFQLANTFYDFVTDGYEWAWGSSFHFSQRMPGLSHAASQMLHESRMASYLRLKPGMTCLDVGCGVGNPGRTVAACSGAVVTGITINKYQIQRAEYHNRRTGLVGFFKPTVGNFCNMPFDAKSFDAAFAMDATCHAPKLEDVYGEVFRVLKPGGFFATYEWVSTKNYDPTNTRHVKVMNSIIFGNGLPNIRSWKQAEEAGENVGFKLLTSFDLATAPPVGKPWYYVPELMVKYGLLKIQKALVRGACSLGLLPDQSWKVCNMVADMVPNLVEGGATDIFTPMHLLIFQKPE
Text: (§3) Yeast lines previously developed for high level accumulation of squalene and botryococcene were used for evaluating the putative triterpene methyltransferase genes (17,23,24). These lines consist of the TN7 parental strain harboring an insertional mutation in the native yeast squalene synthase gene (ERG9) transformed with expression vectors containing either the full-length Botryococcus squalene synthase (BSS) gene (18) or a fusion of the Botryococcus SSL-1 and SSL-3 genes (functional equivalent of botryococcene synthase) including a sequence encoding for the carboxy-terminal membrane targeting domain of the Botryococcus squalene synthase protein (SSL-1-3m) (17). The various methyltransferase expression vectors were introduced into these two yeast lines using the lithium acetate transformation protocol, followed by selection for complementation of the uracil and leucine auxotrophic growth markers (24). […]
(§4) In brief, 1 ml aliquots of the culture were combined with 1 ml of acetone, mixed vigorously, and incubated at room temperature for 10 min. […] The mixture was then centrifuged briefly at 500 g to separate the phases, and an aliquot of the organic phase (1-3 μl) analyzed by GC-MS with a Varian CP-3800 GC coupled to a Varian Saturn 2200 MS/MS (Varian Medical Systems) using a Supelco SLB-5 ms fused silica capillary column (30 m×0.25 mm×0.25 μm film thickness, Supelco). […]

TMT-1 [4] = molecular target: T6, TMT-1 (Botryococcus braunii, UniProt H2E7T5); test: as above; format: cell-based, Botryococcus braunii race B; set-up: led to the identification of six full-length ORFs; made in house; host or cells: Saccharomyces cerevisiae TN7 (TN-7); conditions: TN7 yeast co-expressing TMT-1 and BSS
T6 sequence (H2E7T5 1-378): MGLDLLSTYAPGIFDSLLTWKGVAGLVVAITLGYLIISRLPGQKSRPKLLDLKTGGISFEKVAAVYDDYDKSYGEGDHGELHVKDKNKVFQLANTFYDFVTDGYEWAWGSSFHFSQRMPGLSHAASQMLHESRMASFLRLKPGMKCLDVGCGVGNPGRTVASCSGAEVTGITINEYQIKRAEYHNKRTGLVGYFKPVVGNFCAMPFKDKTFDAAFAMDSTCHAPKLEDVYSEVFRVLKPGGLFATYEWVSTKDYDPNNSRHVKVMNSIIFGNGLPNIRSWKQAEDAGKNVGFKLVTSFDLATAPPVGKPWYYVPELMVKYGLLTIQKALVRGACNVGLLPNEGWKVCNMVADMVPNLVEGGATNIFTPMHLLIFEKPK
Text: as §3, §4

TMT-2 [5] = molecular target: T5, TMT-2; test: In vitro methyltransferase assay, yeast microsomes, 3H-SAM; format: biochemical, Botryococcus braunii race B; set-up: led to the identification of six full-length ORFs; made in house; host or cells: Saccharomyces cerevisiae TN7 (TN-7), microsomal preparation; conditions: TMT-2 microsomes; 2 mM acceptor substrate, 50 μM 3H-SAM, 0.1% DHPC, 37° C., 5 min; mean ± S.E.M., n = 3
Protocol: as §1, with “analysis. […]” for “analysis.”

TMT-1 [6] = molecular target: T6, TMT-1; test: as above; format: biochemical, Botryococcus braunii race B; set-up: led to the identification of six full-length ORFs; made in house; host or cells: Saccharomyces cerevisiae TN7 (TN-7), microsomal preparation; conditions: TMT-1 microsomes; 2 mM acceptor substrate, 50 μM 3H-SAM, 0.1% DHPC, 37° C., 5 min; mean ± S.E.M., n = 3
Protocol: as §1, with “analysis. […]” for “analysis.”

TMT-3 [7] = molecular target: T4, TMT-3; test: In vivo co-expression in TN7 yeast with triterpene synthase, GC-MS of organic extracts; format: cell-based, Botryococcus braunii race B; conditions: TN7 yeast co-expressing TMT-3 and BSS
Text: as §3, §4

Compound: CC(C)=CCC[C@@H](C)[C@H]1CC[C@@]2(C)[C@@H]3CC[C@H]4C(C)(C)[C@@H](O)CC[C@@]45C[C@@]35CC[C@]12C [cycloartenol]
- Methylation of the sterol acceptor substrate [1]: none of the six B. braunii SMT-like genes methylated

Compound: CC(C)=CCC[C@@H](C)[C@H]1CC[C@@]2(C)C3=C(CC[C@]12C)[C@@]1(C)CC[C@H](O)C(C)(C)[C@@H]1CC3 [lanosterol]
- Methylation of the sterol acceptor substrate [1]: none of the six B. braunii SMT-like genes methylated

Compound: CC(C)=CCC/C(C)=C/CC/C(C)=C/CC/C=C(\C)CC/C=C(\C)CCC=C(C)C [squalene]
- Enzyme activity (methyl groups transferred to acceptor substrate) (SMT-2): 0 pmol/h/µg
- Enzyme activity (methyl groups transferred to acceptor substrate) (SMT-3): 0 pmol/h/µg
- Enzyme activity (methyl groups transferred to acceptor substrate) (SMT-1): 0 pmol/h/µg
- Enzyme activity (methyl groups transferred to acceptor substrate) (TMT-3 [2]): 35.4 ± 3.0 pmol/h/µg
- Share of squalenes accumulated as methyl-derivatives (TMT-2 [3]): 40%
- Share of total squalenes accumulated as methyl-derivatives (TMT-1 [4]): 63%
- Enzyme activity (methyl groups transferred to acceptor substrate) (TMT-2 [5]): 862.2 ± 59.9 pmol/h/µg
- Enzyme activity (methyl groups transferred to acceptor substrate) (TMT-1 [6]): 513.7 ± 8.6 pmol/h/µg
- Share of total accumulating squalene converted to its methyl-derivatives (TMT-3 [7]): approximately 18%

Compound: CC(C)=CCC[C@@H](C)[C@H]1CC[C@H]2C3=C(CC[C@]12C)[C@@]1(C)CC[C@H](O)C[C@@H]1CC3 [zymosterol]
- Methylation of the sterol acceptor substrate [1]: none of the six B. braunii SMT-like genes methylated
